# Measured values published in patent publication US5041567A, “Antibacterial monic acid derivatives” (Beecham Group plc, priority 1982, dated 1991).
# Read-outs that look alike come from different tables or passages of the source.
# Assays:
# M. suipneumoniae JF 435 = assay: MIC against mycoplasma in vitro; type: cell-based
# M. suipneumoniae HK(2) = assay: MIC against mycoplasma in vitro; type: cell-based
# [1] = tested on: M. suipneumoniae J2206/183^b; assay: MIC against mycoplasma in vitro; type: cell-based
# M. suipneumoniae MS 16 = assay: MIC against mycoplasma in vitro; type: cell-based; conditions: M. suipneumoniae MS 16, 6 days, 37° C.
# M. suipneumoniae TAM 6N = assay: MIC against mycoplasma in vitro; type: cell-based
# [2] = tested on: M. suipneumoniae ATCC 25095; assay: MIC against mycoplasma in vitro; type: cell-based
# [3] = tested on: M. suipneumoniae NCTC 10110; assay: MIC against mycoplasma in vitro; type: cell-based
# M. hyorhinis ATCC 23234 = assay: MIC against mycoplasma in vitro; type: cell-based
# M. hyorhinis ATCC 25021 = assay: MIC against mycoplasma in vitro; type: cell-based
# [4] = tested on: M. hyosynoviae ATCC 25591; assay: MIC against mycoplasma in vitro; type: cell-based
# M. dispar NCTC 10125 = assay: MIC against mycoplasma in vitro; type: cell-based
# M. pneumoniae ATCC 15492 = assay: MIC against mycoplasma in vitro; type: cell-based; conditions: M. pneumoniae ATCC 15492, 6 days, 37° C.
# E. coli ESS = assay: MIC against human bacteria in vitro; type: cell-based; conditions: E. coli ESS, 5% chocolated horse blood agar, 18 hours
# P. mirabilis 889 = assay: MIC against human bacteria in vitro; type: cell-based; conditions: P. mirabilis 889, 5% chocolated horse blood agar, 18 hours
# K. aerogenes A = assay: MIC against human bacteria in vitro; type: cell-based; conditions: K. aerogenes A, 5% chocolated horse blood agar, 18 hours
# [5] = tested on: Pasteurella multocida 1633; assay: MIC against human bacteria in vitro; type: cell-based; conditions: Pasteurella multocida 1633, 5% chocolated horse blood agar, 18 hours
# Bacillus subtilis 6633 = assay: MIC against human bacteria in vitro; type: cell-based; conditions: Bacillus subtilis 6633, 5% chocolated horse blood agar, 18 hours
# Sarcina lutea 8340 = assay: MIC against human bacteria in vitro; type: cell-based; conditions: Sarcina lutea 8340, 5% chocolated horse blood agar, 18 hours
# Staph. aureus Oxford = assay: MIC against human bacteria in vitro; type: cell-based; conditions: Staph. aureus Oxford, 5% chocolated horse blood agar, 18 hours
# Staph. aureus Russell = assay: MIC against human bacteria in vitro; type: cell-based; conditions: Staph. aureus Russell, 5% chocolated horse blood agar, 18 hours
# Staph. aureus W2827 = assay: MIC against human bacteria in vitro; type: cell-based; conditions: Staph. aureus W2827, 5% chocolated horse blood agar, 18 hours
# Strep. faecalis I = assay: MIC against human bacteria in vitro; type: cell-based; conditions: Strep. faecalis I, 5% chocolated horse blood agar, 18 hours
# [6] = tested on: Strep. pyogenes R80/421-A; assay: MIC against human bacteria in vitro; type: cell-based; conditions: Strep. pyogenes R80/421-A, 5% chocolated horse blood agar, 18 hours
# Strep. spp. 64/848-C = assay: MIC against human bacteria in vitro; type: cell-based; conditions: Strep. spp. 64/848-C, 5% chocolated horse blood agar, 18 hours
# E. coli E1 = assay: MIC against veterinary bacteria in vitro
# Procedure: (§1) The activity of the compounds of the Examples against various veterinarily important bacteria, was assayed in vitro using two-fold serial dilutions in Diagnostic Sensitivity Test Agar inoculated with 10^4 organisms.
# S. typhimurium S18 = assay: MIC against veterinary bacteria in vitro
# Procedure: as §1
# Bord. bronchiseptica B08 = assay: MIC against veterinary bacteria in vitro
# Procedure: as §1
# Past. multocida PA2 = assay: MIC against veterinary bacteria in vitro; conditions: Pasteurella multocida, PA2, 18 h
# Procedure: as §1
# [7] = tested on: Staph. aureus B4 (pen. resistant); assay: MIC against veterinary bacteria in vitro
# Procedure: as §1
# [8] = tested on: Staph. aureus 152 (pen. sens); assay: MIC against veterinary bacteria in vitro
# Procedure: as §1
# [9] = tested on: Strep. suis (group D) SPS11; assay: MIC against veterinary bacteria in vitro
# Procedure: as §1
# Strep. uberis SPU1 = assay: MIC against veterinary bacteria in vitro
# Procedure: as §1
# M. suipneumoniae LABER = assay: MIC against mycoplasma in vitro; type: cell-based; conditions: M. suipneumoniae LABER; 6 days, 37° C.
# [10] = Mesomycoplasma hyopneumoniae, 144 h
# [11] = Staphylococcus aureus, read-out: MIC
smiles,measurement,setting,value
"C/C(=C\c1ncc(-c2ccc(S(=O)(=O)N(C)C)cc2)o1)C[C@@H]1OC[C@H](C[C@@H]2O[C@H]2[C@@H](C)[C@H](C)O)[C@@H](O)[C@H]1O [Example 24, 5-p-Dimethylaminosulphonylphenyl-2-(1-normon-2-yl)oxazole A]",MIC,"M. suipneumoniae JF 435; Mesomycoplasma hyopneumoniae, JF435, 144 h",0.25 µg/mL
same,MIC,M. suipneumoniae HK(2); [10],0.25 µg/mL
same,MIC,[1]; [10],0.25 µg/mL
same,MIC,"M. suipneumoniae MS 16; Mesomycoplasma hyopneumoniae, MS16, 144 h, read-out: MIC",0.1 µg/mL
same,MIC,"M. suipneumoniae TAM 6N; Mesomycoplasma hyopneumoniae, TAM6N, 144 h",0.25 µg/mL
same,MIC,"[2]; Mesomycoplasma hyopneumoniae, ATCC25095, 144 h",0.1 µg/mL
same,MIC,"[3]; Mesomycoplasma hyopneumoniae, NCTC10110, 144 h",0.25 µg/mL
same,MIC,"M. hyorhinis ATCC 23234; Mesomycoplasma hyorhinis, ATCC23234, 144 h",0.1 µg/mL
same,MIC,"M. hyorhinis ATCC 25021; Mesomycoplasma hyorhinis, ATCC25021, 144 h",0.1 µg/mL
same,MIC,[4]; 144 h,0.25 µg/mL
same,MIC,M. dispar NCTC 10125; 144 h,0.1 µg/mL
same,MIC,"M. pneumoniae ATCC 15492; Mycoplasmoides pneumoniae, ATCC15492, 144 h, read-out: MIC",0.5 µg/mL
same,MIC,"E. coli ESS; Escherichia coli, read-out: MIC",4 µg/mL
same,MIC,"P. mirabilis 889; Proteus mirabilis, read-out: MIC",> 64 µg/mL
same,MIC,"K. aerogenes A; Klebsiella aerogenes, read-out: MIC",> 64 µg/mL
same,MIC,[5]; read-out: MIC,16 µg/mL
same,MIC,Bacillus subtilis 6633; read-out: MIC,4 µg/mL
same,MIC,"Sarcina lutea 8340; Micrococcus luteus, read-out: MIC",> 128 µg/mL
same,MIC,Staph. aureus Oxford; [11],4 µg/mL
same,MIC,Staph. aureus Russell; [11],4 µg/mL
same,MIC,Staph. aureus W2827; [11],4 µg/mL
same,MIC,"Strep. faecalis I; Enterococcus faecalis, read-out: MIC",> 128 µg/mL
same,MIC,"[6]; Streptococcus pyogenes, read-out: MIC",2 µg/mL
same,MIC,Strep. spp. 64/848-C; read-out: MIC,4 µg/mL
same,MIC,"E. coli E1; Escherichia coli, E1, 18 h",> 80 µg/mL
same,MIC,"S. typhimurium S18; Salmonella enterica, TYPHIMURIUM, 18 h",> 80 µg/mL
same,MIC,"Bord. bronchiseptica B08; Bordetella bronchiseptica, B08, 18 h",80 µg/mL
same,MIC,Past. multocida PA2,2.5 µg/mL
same,MIC,"[7]; Staphylococcus aureus, 18 h",1.25 µg/mL
same,MIC,"[8]; Staphylococcus aureus, 18 h",0.625 µg/mL
same,MIC,"[9]; Streptococcus suis, 18 h",2.5 µg/mL
same,MIC,"Strep. uberis SPU1; Streptococcus uberis, SPU1, 18 h",0.312 µg/mL
"CC(=Cc1cnc(-c2ccccc2)o1)CC1OCC(CC2OC2C(C)C(C)O)C(O)C1O (stereo not shown) [Example 35, 5-(1-Normon-2-yl)-2-phenyloxazole A]",MIC,"M. suipneumoniae JF 435; M. suipneumoniae JF 435, 6 days, 37° C.",> 10 µg/mL
same,MIC,"M. suipneumoniae HK(2); M. suipneumoniae HK(2), 6 days, 37° C.",> 10 µg/mL
same,MIC,"[1]; M. suipneumoniae J2206/183^b, 6 days, 37° C.",> 10 µg/mL
same,MIC,M. suipneumoniae MS 16,> 10 µg/mL
same,MIC,M. suipneumoniae LABER,> 10 µg/mL
same,MIC,"M. suipneumoniae TAM 6N; M. suipneumoniae TAM 6N, 6 days, 37° C.",> 10 µg/mL
same,MIC,"[2]; M. suipneumoniae ATCC 25095, 6 days, 37° C.",> 10 µg/mL
same,MIC,"[3]; M. suipneumoniae NCTC 10110, 6 days, 37° C.",> 10 µg/mL
same,MIC,"M. hyorhinis ATCC 23234; M. hyorhinis ATCC 23234, 6 days, 37° C.",> 10 µg/mL
same,MIC,"M. hyorhinis ATCC 25021; M. hyorhinis ATCC 25021, 6 days, 37° C.",> 10 µg/mL
same,MIC,"[4]; M. hyosynoviae ATCC 25591, 6 days, 37° C.",> 10 µg/mL
same,MIC,"M. dispar NCTC 10125; M. dispar NCTC 10125, 6 days, 37° C.",> 10 µg/mL
same,MIC,M. pneumoniae ATCC 15492,> 10 µg/mL
same,MIC,E. coli ESS,128 µg/mL
same,MIC,P. mirabilis 889,> 128 µg/mL
same,MIC,K. aerogenes A,> 128 µg/mL
same,MIC,[5],> 128 µg/mL
same,MIC,Bacillus subtilis 6633,> 128 µg/mL
same,MIC,Sarcina lutea 8340,> 128 µg/mL
same,MIC,Staph. aureus Oxford,> 128 µg/mL
same,MIC,Staph. aureus Russell,> 128 µg/mL
same,MIC,Staph. aureus W2827,> 128 µg/mL
same,MIC,Strep. faecalis I,> 128 µg/mL
same,MIC,[6],> 128 µg/mL
same,MIC,Strep. spp. 64/848-C,> 128 µg/mL
same,MIC,"E. coli E1; E. coli E1, Diagnostic Sensitivity Test Agar, 18 hours, 37° C.",> 80 µg/mL
same,MIC,"S. typhimurium S18; S. typhimurium S18, Diagnostic Sensitivity Test Agar, 18 hours",> 80 µg/mL
same,MIC,"Bord. bronchiseptica B08; Bord. bronchiseptica B08, Diagnostic Sensitivity Test Agar, 18 hours",> 80 µg/mL
same,MIC,"[7]; Staph. aureus B4 (pen. resistant), Diagnostic Sensitivity Test Agar, 18 hours",> 80 µg/mL
same,MIC,"[8]; Staph. aureus 152 (pen. sens), Diagnostic Sensitivity Test Agar, 18 hours",> 80 µg/mL
same,MIC,"[9]; Strep. suis (group D) SPS11, Diagnostic Sensitivity Test Agar, 18 hours",> 80 µg/mL
same,MIC,"Strep. uberis SPU1; Strep. uberis SPU1, Diagnostic Sensitivity Test Agar, 18 hours",80 µg/mL
